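Assay format: 96-well plates, 48-hour exposure. GI50 marks 50% less growth. Definition used: TGI = concentration required for complete inhibition of growth.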
Experiments:
Assay in all cases: inhibition of tumour cell growth, NCI panel, 48 h
[1] = test system: UACC-62 melanoma
[2] = test system: SNB-19 CNS
[3] = test system: EKVX NSCLC
[4] = test system: HS 578T breast
[5] = test system: HT29 colon
[6] = test system: UACC-257 melanoma
[7] = test system: HCT-116 colon
[8] = test system: KM12 colon
[9] = test system: IGROV1 ovarian
[10] = test system: NCI-H226 lung
[11] = test system: OVCAR-8 ovarian
[12] = test system: HCC-2998 colon
[13] = test system: OVCAR-4 ovarian
[14] = test system: SK-MEL-5 melanoma
[15] = test system: SF-268 CNS
[16] = test system: SW-620 colon
[17] = test system: SK-MEL-28 melanoma
[18] = test system: DU-145 prostate
[19] = test system: SN12C renal
[20] = test system: K-562 leukemia
[21] = test system: PC-3 prostate
[22] = test system: SF-539 CNS
[23] = test system: OVCAR-5 ovarian
[24] = test system: SNB-75 CNS
[25] = test system: T-47D breast
[26] = test system: RPMI-8226 leukemia
[27] = test system: MDA-MB-231 breast
[28] = test system: OVCAR-3 ovarian
[29] = test system: HCT-15 colon
[30] = test system: NCI/ADR-RES ovarian
[31] = test system: NCI-H23 lung
[32] = test system: M14 melanoma
[33] = test system: U251 CNS
[34] = test system: MDA-MB-435
[35] = test system: UO-31 renal
[36] = test system: A549 NSCLC
[37] = test system: HOP-62 NSCLC
[38] = test system: COLO 205 colon
[39] = test system: TK-10 renal
[40] = test system: 786-0 renal
[41] = test system: LOX IMVI melanoma
[42] = test system: SK-OV-3 ovarian
[43] = test system: SR leukemia
[44] = test system: CAKI-1 renal
[45] = test system: BT-549 breast
[46] = test system: ACHN renal
[47] = test system: CCRF-CEM leukemia
[48] = test system: NCI-H460 lung
[49] = test system: HL-60(TB) leukemia
[50] = test system: RXF 393 renal
[51] = test system: MOLT-4 leukemia
[52] = test system: SF-295 CNS
[53] = test system: MCF7 breast
[54] = test system: A498 renal
[55] = test system: HOP-92 NSCLC
[56] = test system: MALME-3M melanoma

**Q.** Which GI50 [1] does the source give for `O=C(Nc1cc(Cl)ccc1O)c1cccc(Nc2ccnc(C(F)(F)F)c2)c1` here?
**A.** 0.901 µM

**Q.** What about the TGI [1] of the same compound?
**A.** 11.9 µM

**Q.** What about the GI50 [2] of the same compound?
**A.** 2.42 µM

**Q.** And the TGI [2]?
**A.** 13.8 µM

**Q.** What about the GI50 [3] of the same compound?
**A.** 2.43 µM

**Q.** And the TGI [3]?
**A.** 10.7 µM

**Q.** What about the GI50 [4] of the same compound?
**A.** 8.27 µM

**Q.** What about the TGI [4] of the same compound?
**A.** 41.2 µM

**Q.** And the GI50 [5]?
**A.** 11.1 µM

**Q.** What about the TGI [5] of the same compound?
**A.** 31.8 µM

**Q.** What about the GI50 [6] of the same compound?
**A.** 4.63 µM

**Q.** What about the TGI [6] of the same compound?
**A.** 16.7 µM

**Q.** And the GI50 [7]?
**A.** 2.22 µM

**Q.** And the TGI [7]?
**A.** 17.6 µM

**Q.** And the GI50 [8]?
**A.** 3.68 µM

**Q.** What about the TGI [8] of the same compound?
**A.** 14.4 µM

**Q.** And the GI50 [9]?
**A.** 7.47 µM

**Q.** What about the TGI [9] of the same compound?
**A.** 33.9 µM

**Q.** What about the GI50 [10] of the same compound?
**A.** 4.84 µM

**Q.** What about the TGI [10] of the same compound?
**A.** 39.5 µM

**Q.** What about the GI50 [11] of the same compound?
**A.** 3.77 µM

**Q.** And the TGI [11]?
**A.** 32.1 µM

**Q.** And the GI50 [12]?
**A.** 5.01 µM

**Q.** And the TGI [12]?
**A.** 17.1 µM

**Q.** And the GI50 [13]?
**A.** 2.32 µM

**Q.** What about the TGI [13] of the same compound?
**A.** 17.4 µM

**Q.** And the GI50 [14]?
**A.** 1.3 µM

**Q.** What about the TGI [14] of the same compound?
**A.** 3.83 µM

**Q.** And the GI50 [15]?
**A.** 7.35 µM

**Q.** What about the TGI [15] of the same compound?
**A.** 22.8 µM

**Q.** What about the GI50 [16] of the same compound?
**A.** 4.32 µM

**Q.** What about the TGI [16] of the same compound?
**A.** 18.5 µM

**Q.** And the GI50 [17]?
**A.** 6.15 µM

**Q.** And the TGI [17]?
**A.** 19.1 µM

**Q.** What about the GI50 [18] of the same compound?
**A.** 5.22 µM

**Q.** And the TGI [18]?
**A.** 22.6 µM

**Q.** What about the GI50 [19] of the same compound?
**A.** 3.36 µM

**Q.** And the TGI [19]?
**A.** 25.5 µM

**Q.** And the GI50 [20]?
**A.** 0.713 µM

**Q.** What about the TGI [20] of the same compound?
**A.** 12.4 µM

**Q.** And the GI50 [21]?
**A.** 2.29 µM

**Q.** And the TGI [21]?
**A.** 11.6 µM

**Q.** And the GI50 [22]?
**A.** 2.07 µM

**Q.** What about the TGI [22] of the same compound?
**A.** 15 µM

**Q.** What about the GI50 [23] of the same compound?
**A.** 13.9 µM

**Q.** What about the TGI [23] of the same compound?
**A.** 38.5 µM

**Q.** What about the GI50 [24] of the same compound?
**A.** 6.27 µM

**Q.** And the TGI [24]?
**A.** 22.2 µM

**Q.** And the GI50 [25]?
**A.** 1.02 µM

**Q.** What about the TGI [25] of the same compound?
**A.** 7.51 µM

**Q.** And the GI50 [26]?
**A.** 0.822 µM

**Q.** What about the TGI [26] of the same compound?
**A.** 4.04 µM

**Q.** And the GI50 [27]?
**A.** 2.63 µM

**Q.** What about the TGI [27] of the same compound?
**A.** 26.7 µM

**Q.** And the GI50 [28]?
**A.** 2.73 µM

**Q.** What about the TGI [28] of the same compound?
**A.** 10.4 µM

**Q.** And the GI50 [29]?
**A.** 2.61 µM

**Q.** What about the TGI [29] of the same compound?
**A.** 42.1 µM

**Q.** What about the GI50 [30] of the same compound?
**A.** 2.67 µM

**Q.** What about the TGI [30] of the same compound?
**A.** 14.1 µM

**Q.** And the GI50 [31]?
**A.** 0.771 µM

**Q.** And the TGI [31]?
**A.** 7.74 µM

**Q.** What about the GI50 [32] of the same compound?
**A.** 3.85 µM

**Q.** What about the TGI [32] of the same compound?
**A.** 18.3 µM

**Q.** What about the GI50 [33] of the same compound?
**A.** 3.05 µM

**Q.** What about the TGI [33] of the same compound?
**A.** 83.4 µM

**Q.** And the GI50 [34]?
**A.** 2.83 µM

**Q.** And the TGI [34]?
**A.** 12.2 µM

**Q.** What about the GI50 [35] of the same compound?
**A.** 2.3 µM

**Q.** What about the TGI [35] of the same compound?
**A.** 11.3 µM

**Q.** What about the GI50 [36] of the same compound?
**A.** 2.94 µM

**Q.** What about the TGI [36] of the same compound?
**A.** 66 µM

**Q.** What about the GI50 [37] of the same compound?
**A.** 4.4 µM

**Q.** And the TGI [37]?
**A.** 23.5 µM

**Q.** What about the GI50 [38] of the same compound?
**A.** 3.18 µM

**Q.** And the TGI [38]?
**A.** 15 µM

**Q.** What about the GI50 [39] of the same compound?
**A.** 4.51 µM

**Q.** And the TGI [39]?
**A.** 19.8 µM

**Q.** And the GI50 [40]?
**A.** 3.56 µM

**Q.** What about the TGI [40] of the same compound?
**A.** 19.3 µM

**Q.** And the GI50 [41]?
**A.** 2.65 µM

**Q.** What about the TGI [41] of the same compound?
**A.** 24.4 µM

**Q.** And the GI50 [42]?
**A.** 3.3 µM

**Q.** And the TGI [42]?
**A.** 25.3 µM

**Q.** What about the GI50 [43] of the same compound?
**A.** 0.811 µM

**Q.** And the TGI [43]?
**A.** 15.2 µM

**Q.** And the GI50 [44]?
**A.** 2.61 µM

**Q.** What about the TGI [44] of the same compound?
**A.** 12.7 µM

**Q.** What about the GI50 [45] of the same compound?
**A.** 2.18 µM

**Q.** What about the TGI [45] of the same compound?
**A.** 12.6 µM

**Q.** What about the GI50 [46] of the same compound?
**A.** 2.13 µM

**Q.** And the TGI [46]?
**A.** 81.2 µM

**Q.** What about the GI50 [47] of the same compound?
**A.** 1.93 µM

**Q.** And the TGI [47]?
**A.** 6.8 µM

**Q.** What about the GI50 [48] of the same compound?
**A.** 1.95 µM

**Q.** And the TGI [48]?
**A.** 13.2 µM

**Q.** What about the GI50 [49] of the same compound?
**A.** 0.935 µM

**Q.** What about the TGI [49] of the same compound?
**A.** 4.03 µM

**Q.** What about the GI50 [50] of the same compound?
**A.** 11 µM

**Q.** And the TGI [50]?
**A.** 29.1 µM

**Q.** What about the GI50 [51] of the same compound?
**A.** 1.54 µM

**Q.** What about the TGI [51] of the same compound?
**A.** 4.73 µM

**Q.** And the GI50 [52]?
**A.** 2.38 µM

**Q.** What about the TGI [52] of the same compound?
**A.** 11.1 µM

**Q.** And the GI50 [53]?
**A.** 2 µM

**Q.** What about the TGI [53] of the same compound?
**A.** 17.9 µM

**Q.** And the GI50 [54]?
**A.** 3.28 µM

**Q.** And the TGI [54]?
**A.** 13.4 µM

**Q.** What about the GI50 [55] of the same compound?
**A.** 2.27 µM

**Q.** And the TGI [55]?
**A.** 10.9 µM

**Q.** What about the GI50 [56] of the same compound?
**A.** 2.22 µM

**Q.** What about the TGI [56] of the same compound?
**A.** 11.2 µM

From PubChem BioAssay (NCI)
